The text below walks through data of patent US11547703B2, “Substituted fused heteroaromatic tricyclic compounds as kinase inhibitors and the use thereof” (IMPACT THERAPEUTICS (SHANGHAI), INC, priority 2017, dated 2023).

Experiment [1] relates to human breast cancer cell MDA-MB-468. The experiment in a line: MTT assay, growth of MDA-MB-468 cells. The class given is cell-based. The following applies: Homo sapiens, MDA-MB-468, 168 h; single agent, 7 days, MTT. Here is the method: (§1) MDA-MB-468 cells were digested by trypsinase, centrifuged at 800 rpm for 5 minutes, the supernatant was discarded, resuspended with fresh medium (RPMI 1640 medium+10% FBS) and counted. The cells were seeded into 96-well cell culture plate with appropriate cell density and incubated overnight in a 37° C. 5% CO2 incubator. The stock solutions of the tested compound and the reference compound AZD0156 were serially diluted to 8 concentrations by DMSO at the ratios of 1:3 and 1:10, respectively: the last concentration was negative control of DMSO (0 μM, the final concentration of DMSO was 1%). 5 μL of each concentration was added to 120 μL of medium (25 times diluted) and mixed by shaking. The overnight cells were taken and the culture medium was removed, 195 μL of fresh medium (PRMI 1640+5% FBS) was added to each well, and 5 μL of diluted medium containing the corresponding concentration of the tested sample was added respectively, and the culture plate was then placed in the 5% CO2 cell culture incubator at 37° C. for 7 days (On the fourth day, the medium containing drugs was removed and fresh medium containing drugs was added for continuous cultivation). After removing the original solution, 100 μL of fresh serum-free DMEM medium containing MTT (0.5 mg/mL) was added to each well, the culture was continued. After 4 hours, the original solution was removed, 100 μL of DMSO was added into each well, the 96-well plates were shaken away from light for 10 minutes and placed in a multi-function reader to read the absorbance at the wavelength of 552/630/690 nm. GraphPad Prism 6.0 was used to analyze the data. The inhibitory activity of compounds on cell proliferation was plotted based on cell viability and compound concentration. The IC50 value was fitted by a sigmoidal dose response curve equation Y=100/(1+10^(Log C−Log IC50)), where C was the concentration of compound.
(In general: Formazan colour is commonly taken as a measure of viable cells.)

The test system of experiment [2] is human colon cancer cell SW620. Nature of the experiment: MTT assay, growth of SW620 cells, compounds combined with CPT-11. The format is cell-based. Conditions: Homo sapiens, SW-620, 120 h; 205 nM CPT-11, 5 days, MTT. How it is done:
as §1, with “SW620” for “MDA-MB-468”, “respectively, and” for “respectively:”, “containing 205 nM CPT-11” for “(PRMI 1640+5% FBS)”, “5 days.” for “7 days (On the fourth day, the medium containing drugs was removed and fresh medium containing drugs was added for continuous cultivation).”

Experiment [3] concerns the target ATM enzyme (human) (Homo sapiens, UniProt Q13315). The experiment in a line: ATM kinase assay (HTRF, phosphorylation of GST-cMyc-p53). The class given is biochemical. The following applies: 0.5 h; detected concentration 1 μm. Here is the method: ATM enzyme (human) was added to the reaction solution containing 30 nM GST-cMyc-p53 and 10 μM Mg/ATP, and then 50 times the concentration of the tested compound (or reference compound AZD0156) dissolved in 100% DMSO was added to the final concentration of 10 μM/1 μM/0.1 μM/0.01 μM. The reaction was initiated by the addition of a Mg/ATP mixture and incubation for 30 minutes at room temperature, the reaction was quenched by the addition of a stop solution containing EDTA. Finally, the detection buffer containing the d2-labeled anti-GST monoclonal antibody and the europium-labeled anti-phospho p53 (Ser15) antibody was added. The plate was then read in time resolved fluorescence mode and the homogeneous time resolved fluorescence (HTRF) signal was determined according to the equation: HTRF=10000×(Em665nm/Em620nm). Each compound sample was repeated in duplicate. The negative control contained all components except the ATM enzyme, and the positive control contained all components. All reactions were quenched by adding EDTA.
The compounds were serially diluted to 10 concentrations with 100% DMSO at the ratio of 1:3 and 1:10 (the last concentration was negative control of DMSO), then added to the ATM buffer and diluted to a final concentration of 10, 3, 1, 0.3, 0.1, 0.03, 0.01, 0.003, 0.001 and 0 μM, respectively. ATM kinase inhibition was detected by using the method described above. The curve equation for calculating IC50 value is as follows: […]
wherein, C is the concentration of compound and D is the slope factor. Table 2 summarizes the IC50 values of compounds inhibiting ATM kinase.
In general terms: Time-resolved FRET reads energy transfer from a long-lived donor to a nearby acceptor.

Sequence of ATM enzyme (human) (Q13315 whole entry): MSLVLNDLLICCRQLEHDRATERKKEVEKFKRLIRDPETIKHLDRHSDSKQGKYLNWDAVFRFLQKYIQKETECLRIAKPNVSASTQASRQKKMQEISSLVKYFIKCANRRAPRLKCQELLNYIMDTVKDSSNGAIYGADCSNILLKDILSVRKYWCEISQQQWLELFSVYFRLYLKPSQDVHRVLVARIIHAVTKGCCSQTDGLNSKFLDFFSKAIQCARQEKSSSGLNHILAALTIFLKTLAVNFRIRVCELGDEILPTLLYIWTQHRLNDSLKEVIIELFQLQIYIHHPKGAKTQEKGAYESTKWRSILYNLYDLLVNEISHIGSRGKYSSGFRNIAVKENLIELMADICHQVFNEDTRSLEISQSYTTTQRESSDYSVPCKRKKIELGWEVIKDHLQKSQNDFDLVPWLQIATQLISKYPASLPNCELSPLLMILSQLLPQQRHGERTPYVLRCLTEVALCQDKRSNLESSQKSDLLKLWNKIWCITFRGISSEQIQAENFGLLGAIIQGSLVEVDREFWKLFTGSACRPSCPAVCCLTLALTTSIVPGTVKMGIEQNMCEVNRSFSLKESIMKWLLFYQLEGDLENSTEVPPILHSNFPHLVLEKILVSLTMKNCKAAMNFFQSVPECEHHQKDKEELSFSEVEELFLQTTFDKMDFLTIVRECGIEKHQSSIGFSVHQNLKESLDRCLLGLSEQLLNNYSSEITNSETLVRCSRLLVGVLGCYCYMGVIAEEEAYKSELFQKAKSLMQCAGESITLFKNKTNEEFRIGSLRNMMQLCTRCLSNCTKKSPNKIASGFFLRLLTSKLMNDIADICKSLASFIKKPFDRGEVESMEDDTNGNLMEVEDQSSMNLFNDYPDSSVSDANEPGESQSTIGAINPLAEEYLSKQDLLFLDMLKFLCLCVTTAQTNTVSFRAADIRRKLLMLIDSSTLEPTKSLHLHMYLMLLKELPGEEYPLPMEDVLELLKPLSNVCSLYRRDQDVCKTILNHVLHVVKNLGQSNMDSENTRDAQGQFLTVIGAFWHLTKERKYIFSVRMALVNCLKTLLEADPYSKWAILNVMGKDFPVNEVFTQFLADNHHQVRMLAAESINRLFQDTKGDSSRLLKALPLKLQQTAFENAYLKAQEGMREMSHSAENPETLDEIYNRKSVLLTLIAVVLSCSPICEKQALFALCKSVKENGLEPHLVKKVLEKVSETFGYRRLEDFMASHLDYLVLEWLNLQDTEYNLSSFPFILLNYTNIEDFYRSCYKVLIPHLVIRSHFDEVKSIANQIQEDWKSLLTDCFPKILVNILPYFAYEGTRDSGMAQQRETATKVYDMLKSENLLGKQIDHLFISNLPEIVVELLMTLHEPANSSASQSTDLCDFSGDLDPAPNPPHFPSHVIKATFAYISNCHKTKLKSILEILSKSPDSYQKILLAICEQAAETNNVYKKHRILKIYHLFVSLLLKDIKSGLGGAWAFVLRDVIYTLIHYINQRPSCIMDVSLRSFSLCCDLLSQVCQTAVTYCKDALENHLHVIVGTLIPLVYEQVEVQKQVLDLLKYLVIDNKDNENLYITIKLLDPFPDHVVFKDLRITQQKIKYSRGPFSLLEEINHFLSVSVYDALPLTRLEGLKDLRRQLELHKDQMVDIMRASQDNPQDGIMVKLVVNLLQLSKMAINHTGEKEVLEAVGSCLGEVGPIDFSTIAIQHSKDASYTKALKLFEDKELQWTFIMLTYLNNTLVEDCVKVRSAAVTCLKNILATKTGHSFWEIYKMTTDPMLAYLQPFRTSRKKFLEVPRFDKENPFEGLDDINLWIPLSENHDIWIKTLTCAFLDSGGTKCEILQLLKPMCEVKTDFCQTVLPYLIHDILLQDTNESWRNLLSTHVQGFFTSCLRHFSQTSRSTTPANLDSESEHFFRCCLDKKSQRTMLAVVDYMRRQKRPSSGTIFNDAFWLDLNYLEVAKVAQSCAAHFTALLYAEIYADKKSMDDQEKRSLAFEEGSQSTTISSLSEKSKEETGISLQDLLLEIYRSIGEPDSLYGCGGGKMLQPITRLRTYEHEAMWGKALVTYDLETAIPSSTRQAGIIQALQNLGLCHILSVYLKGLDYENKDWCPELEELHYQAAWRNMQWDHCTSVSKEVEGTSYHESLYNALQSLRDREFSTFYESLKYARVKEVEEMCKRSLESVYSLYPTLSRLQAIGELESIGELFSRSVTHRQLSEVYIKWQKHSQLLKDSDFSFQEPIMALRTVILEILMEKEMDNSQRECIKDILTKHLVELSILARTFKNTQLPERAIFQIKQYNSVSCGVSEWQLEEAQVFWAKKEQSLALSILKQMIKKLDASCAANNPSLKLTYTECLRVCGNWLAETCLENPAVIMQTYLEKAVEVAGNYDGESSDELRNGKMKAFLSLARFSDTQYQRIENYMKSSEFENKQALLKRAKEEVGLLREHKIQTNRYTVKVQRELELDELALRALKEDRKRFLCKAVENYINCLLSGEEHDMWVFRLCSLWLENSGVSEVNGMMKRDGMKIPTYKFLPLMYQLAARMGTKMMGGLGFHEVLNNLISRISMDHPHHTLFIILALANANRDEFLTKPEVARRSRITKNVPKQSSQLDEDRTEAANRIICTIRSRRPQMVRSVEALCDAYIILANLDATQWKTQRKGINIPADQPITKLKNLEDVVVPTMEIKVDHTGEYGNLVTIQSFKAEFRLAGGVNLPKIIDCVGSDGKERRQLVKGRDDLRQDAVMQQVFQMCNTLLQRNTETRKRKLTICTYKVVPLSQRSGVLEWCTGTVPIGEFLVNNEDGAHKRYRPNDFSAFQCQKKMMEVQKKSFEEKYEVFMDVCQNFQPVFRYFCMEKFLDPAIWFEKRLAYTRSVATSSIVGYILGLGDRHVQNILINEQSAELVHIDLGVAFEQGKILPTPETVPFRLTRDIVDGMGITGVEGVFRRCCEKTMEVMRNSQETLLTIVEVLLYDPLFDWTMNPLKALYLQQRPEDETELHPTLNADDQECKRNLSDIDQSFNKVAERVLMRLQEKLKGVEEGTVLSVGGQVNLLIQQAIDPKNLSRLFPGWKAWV

Broadly, the IC50 is the concentration at which inhibition is half-maximal. A word on the inhibition: it is the share of the control response that was lost under treatment. Higher therefore signals strong suppression. In the case of `CN(C)CCCOc1ccc(-c2ccc3nc4cccc(NC5CCN(C)CC5)c4n3c2)cn1` [Example 15, N,N-dimethyl-3-((5-(9-(1-methylpiperidin-4-ylamino)benzo[4,5]imidazo[1,2-a]pyridin-2-yl)pyridin-2-yl)oxy)propan-1-amine], the 50% inhibitory concentration (IC50) in experiment [1] is above 10 µM; in experiment [2] it was 2420 nM. In addition, in experiment [3], the inhibition at 1 µM is 39%.
